Reference: US20130189200A1, “Oral Composition For Removing Tooth Stain” (REGENETISS, INC., priority 2010, published 2013)

Assay: Whitening effect evaluation test (residual ratio of stain on tea-stained dry apatite)
Experimental: 1 to 2 g of hydroxyapatite (Biogel-HTP, Bio-Rad Laboratories, Inc.) was put into a 50 mL tube, and 20 mL of protein solution (1%, IXOS SCP5000, Nitta Gelatin Inc.) was added thereto, and the mixture was left to stand for 10 to 15 minutes, and then the mixture was separated by centrifugation at 3,000×g for 2 minutes to remove a supernatant. Next, after the centrifugation, 20 mL of stain solution (5 g of instant coffee, two tea bags and two green tea bags were put into 110 mL of water, and the mixture was heated by a microwave oven for 2 minutes. Then the mixture was cooled down at room temperature with shaking for 3 hours to one night. Then the mixture was filtered by a 200 mesh filter. The stain liquid was obtained like this.) was mixed with the precipitated apatite, and the mixture was left to stand for 10 to 15 minutes, and then the mixture was separated by centrifugation (2,500 rpm, 2 minutes) to remove a supernatant. Then, after centrifugation, 20 mL of artificial saliva (20 mM HEPES-KOH pH 7.0, 1.5 mM CaCl2 and 0.9 mM KH2PO4) was added into the precipitated apatite, and the mixture was left to stand for 10 to 15 minutes, and then the mixture was separated by centrifugation (2,500 rpm, 2 minutes). After removal of a supernatant from the mixture, the precipitated apatite was dried.
20 mg of the tea-stained dry apatite is weighed, and 0.3 mL of solution was added thereto, which contains H2O2 at various concentrations and, as appropriate, various phosphate polymers, NaOH and other substances, and then the mixture was left to stand at a certain temperature for a certain time. Then the apatite was precipitated by centrifugation (3,000×g, 15 seconds), and a supernatant was removed from the mixture, and then the apatite was mixed well with 1 mL of water to wash. Further, subsequent washing procedure was repeated four times. After that, the apatite was suspended in 200 μL of water, and the suspension was poured into a well of a 96 well microtiter plate. The 96 well microtiter plate was scanned from the bottom by a scanner (Epson GT8300). The image was inverted to be negative, and brightness analysis was performed by means of imageJ (free software), and then the residual ratio of stain was calculated.

| SMILES | Residual ratio of stain (15% carbamide peroxide alone, NaOH 0 N, pH 7.0, 45 °C, 30 min) | Residual ratio of stain (15% carbamide peroxide alone, NaOH 0 N, pH 7.0, 45 °C, 60 min) | Residual ratio of stain (15% carbamide peroxide alone, NaOH 1 N, pH 11.4, 45 °C, 30 min) | Residual ratio of stain (15% carbamide peroxide alone, NaOH 1 N, pH 11.4, 45 °C, 60 min) | Residual ratio of stain (30% carbamide peroxide alone, NaOH 0 N, pH 7.1, 45 °C, 60 min) | Residual ratio of stain (30% carbamide peroxide alone, NaOH 1 N, pH 10.9, 45 °C, 30 min) | Residual ratio of stain (30% carbamide peroxide alone, NaOH 1 N, pH 10.9, 45 °C, 60 min) | Residual ratio of stain (highest whitening effect) (carbamide peroxide only, 30%, alkaline condition, treatment time 60 minutes (so in the source)) | Residual ratio of stain (3.5% H2O2, 0% ultraphosphate, pH 7.5, 42 °C, 10 min) | Residual ratio of stain (3.5% H2O2, 0% ultraphosphate, pH 7.5, 42 °C, 30 min) | Residual ratio of stain (3.5% H2O2, 0% ultraphosphate, pH 7.5, 42 °C, 60 min) | Residual ratio of stain (3.5% H2O2, 0% ultraphosphate, pH 7.5, 42 °C, 180 min) | Residual ratio of stain (3.5% H2O2 alone, alkaline (1), pH 11.6, 45 °C, 30 min) | Residual ratio of stain (20% hydrogen peroxide under alkaline condition, 30 minutes treatment) |
| --- | --- | --- | --- | --- | --- | --- | --- | --- | --- | --- | --- | --- | --- | --- |
| NC(N)=O.OO [carbamide peroxide] | 89.86% | 87.73% | 27.69% | 30.39% | 60.96% | 19.01% | 20.22% | 19.01% |  |  |  |  |  |  |
| OO [hydrogen peroxide] |  |  |  |  |  |  |  |  | 98.15% | 96.80% | 94.89% | 88.78% | 49.23% | 40.08% |
